In US7833795B2, “Assessment of cardiovascular risk using isoprostane biomarkers and COX-2 selective inhibitors” (The Trustees of the University of Pennsylvania, priority 2004, dated 2010):
Read-outs that look alike come from different tables or passages of the source.

Tests used:
PGI2 biosynthesis = test: Urinary 2,3-dinor-6-keto PGF1α (PGI-M) in volunteers; assay type: in vivo, human; settings: single dose (rofecoxib 25 mg, celecoxib 200 mg), 4 hours
Excerpt: (§1) Written informed consent was obtained from all study volunteers.
(§2) The coefficients of variation for both assays were <10%.
(§3) All variables were log transformed to approximate normality. Three extreme outlying datapoints were removed.

TxA2 formation = test: Urinary 11-dehydro TxB2 (Tx-M) in volunteers; assay type: in vivo, human
Excerpt: as §1, §2, §3

[1] = Plasma drug concentrations by LC tandem MS; assay type: in vivo, human; settings: for concentration at 4 h: human, plasma, 4 hours after dosing, single dose (rofecoxib 25 mg, celecoxib 200 mg)
COX-1 = COX-1 (Homo sapiens, UniProt P23219); settings: in vivo
Procedure: (§4) Study Design: This randomized, double-blind, placebo-controlled protocol was approved by the Institutional Review Board of the University of Pennsylvania Health System and by the Advisory Council of the General Clinical Research Center (University of Pennsylvania, Philadelphia). Written informed consent was obtained from all study volunteers. […] Routine hematology, biochemistry, and urinalysis were assessed at time of screening and at 24 hours after administration of the drugs on completion of the study.
(§5) Measurements were performed immediately before the administration of drug (0 hrs) and 4 hours thereafter. […] A subset of the volunteers (n=5) progressed through the entire protocol on five occasions, each separated by two weeks, to assess intraindividual variability in drug response in five replicates.
(§6) Statistical analysis: The primary response variables were: i) ex vivo COX-2 inhibition, expressed as the ratio of postdrug to predrug plasma PGE2; ii) ex vivo COX-1 inhibition, expressed as the ratio of postdrug to predrug serum TxB2; iii) urinary PGI-M inhibition, expressed as the ratio of concentration post drug to post placebo administration; iv) urinary Tx-M inhibition, expressed as the ratio of concentration post drug to post placebo administration; and v) plasma drug concentrations four hours post drug administration. […]

COX-2 = COX-2 (Homo sapiens, UniProt P35354); settings: in vivo
Procedure: as §4, §5, §6

[2] = patients receiving rofecoxib (25 mg/day), as early as one month; cited from earlier work

Chain of COX-2 (P35354 18-604): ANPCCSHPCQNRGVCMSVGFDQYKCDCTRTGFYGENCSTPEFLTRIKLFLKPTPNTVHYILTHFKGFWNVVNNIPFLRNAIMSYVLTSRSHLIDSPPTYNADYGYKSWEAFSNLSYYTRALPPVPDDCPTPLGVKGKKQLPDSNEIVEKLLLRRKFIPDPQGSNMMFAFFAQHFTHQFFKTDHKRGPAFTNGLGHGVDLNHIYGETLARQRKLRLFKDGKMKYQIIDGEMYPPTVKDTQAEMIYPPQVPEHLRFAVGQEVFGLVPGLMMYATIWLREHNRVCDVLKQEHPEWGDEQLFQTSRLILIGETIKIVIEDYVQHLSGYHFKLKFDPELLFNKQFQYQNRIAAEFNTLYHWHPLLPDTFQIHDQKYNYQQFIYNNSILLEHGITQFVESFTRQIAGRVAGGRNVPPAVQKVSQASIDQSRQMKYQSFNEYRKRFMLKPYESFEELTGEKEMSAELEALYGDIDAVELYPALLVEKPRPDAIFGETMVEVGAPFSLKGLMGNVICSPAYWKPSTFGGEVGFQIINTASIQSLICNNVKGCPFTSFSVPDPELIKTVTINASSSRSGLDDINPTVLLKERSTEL
Chain of COX-1 (P23219 24-599): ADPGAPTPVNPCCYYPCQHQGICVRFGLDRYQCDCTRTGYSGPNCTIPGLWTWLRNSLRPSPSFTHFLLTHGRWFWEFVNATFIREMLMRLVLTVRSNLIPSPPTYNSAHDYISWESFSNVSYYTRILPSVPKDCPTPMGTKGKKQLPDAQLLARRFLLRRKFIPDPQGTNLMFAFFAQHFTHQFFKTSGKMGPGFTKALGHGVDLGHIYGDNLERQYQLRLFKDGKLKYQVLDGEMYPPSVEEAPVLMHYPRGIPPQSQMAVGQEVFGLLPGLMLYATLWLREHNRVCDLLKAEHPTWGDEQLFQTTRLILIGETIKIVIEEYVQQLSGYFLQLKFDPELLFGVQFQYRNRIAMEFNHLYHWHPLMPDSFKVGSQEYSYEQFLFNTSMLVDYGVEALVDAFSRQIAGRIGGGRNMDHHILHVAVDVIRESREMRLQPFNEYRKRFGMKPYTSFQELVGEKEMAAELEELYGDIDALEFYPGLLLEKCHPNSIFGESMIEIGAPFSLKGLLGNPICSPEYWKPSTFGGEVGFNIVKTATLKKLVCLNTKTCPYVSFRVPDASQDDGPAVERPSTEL

SMILES: CS(=O)(=O)c1ccc(C2=C(c3ccccc3)C(=O)OC2)cc1 [rofecoxib]
- urinary PGI-M compared to placebo (PGI2 biosynthesis): depressed urinary PGI-M
- COX-1 inhibition in vivo (urinary Tx-M) in Pro17Leu variant of COX-1 (TxA2 formation; rofecoxib 25 mg): absence of COX-1 inhibition in vivo
- excretion of urinary Tx-M compared to placebo (TxA2 formation; single dose (rofecoxib 25 mg, celecoxib 200 mg), 4 hours): not excretion of urinary Tx-M
- concentration at 4 h ([1]; read-out: plasma drug concentration, median): 215 ng/mL
- concentration at 4 h ([1]; read-out: plasma drug concentration, range): 115 to 658 ng/mL
- drop in plasma concentration per unit increase in BMI ([1]; rofecoxib 25 mg, 4 hours): about 2%
- COX-1 derived serum TxB2 (COX-1): failed to inhibit significantly
- degree of inhibition of COX-2 dependent PGE2 formation ex vivo (COX-2): 44.8%
- elevation of blood pressure [2]: 3-4 mm Hg
